According to patent US9120749B2, “Quinoline derivatives and MELK inhibitors containing the same” (ONCOTHERAPY SCIENCE, INC., priority 2010, dated 2015):
Like-named read-outs stand apart in the source and are kept apart here.

Key:
A549 cells = assay: Cell-based assay: anti-proliferative activity, Cell Counting Kit-8, 72 hours (A549); conditions: Homo sapiens, A549, 72 h, 72 hours
Procedure: (§1) 100 micro-L of cell suspension was seeded onto 96-well microtiter plate (ViewPlate-96FTC, PerkinElmer). The initial cell concentration of T47D, A549, BT-549, and HT-1197 were 3,000 cells/well, 2,000 cells/well and 2,500 cells/well, respectively. Cellular growth was determined using Cell Counting Kit-8 (DOJINDO) at 72 hours after the exposure of the candidate inhibitors. […] Accurate IC50 values were calculated as described previously.

T47D cells = assay: Cell-based assay: anti-proliferative activity, Cell Counting Kit-8, 72 hours (T47D); conditions: Homo sapiens, T47D, 72 h
Procedure: (§2) To evaluate the expression status of MELK in several cell lines, western blot analysis was performed using crude cell lysate collected from those cells. Anti-MELK antibody (clone 31, BD Biosciences) was used to visualize the expression.
as §1, with “Active candidate inhibitors against MELK were evaluated for their target-specific cytotoxicity using T47D, A549, BT-549, and HT-1197 cells was used for negative control. 100” for “100”

HT-1197 cells = assay: Cell-based assay: anti-proliferative activity, Cell Counting Kit-8, 72 hours (HT-1197, negative control without MELK expression); conditions: Homo sapiens, HT1197, 72 h, HT1197 cells (negative control, no MELK expression), 72 hours
Procedure: as §2
as §1, with “Active candidate inhibitors against MELK were evaluated for their target-specific cytotoxicity using T47D, A549, BT-549, and HT-1197 cells was used for negative control. 100” for “100”

MELK = MELK (Homo sapiens, UniProt Q14680); assay: Kinase assay: MELK activity, phosphorylation of FITC-labeled histone H3 peptide measured by IMAP fluorescence polarization; assay type: biochemical
Procedure: MELK activity was determined in the presence or absence of compounds using fluorescein isothiocyanate-labeled (FITC-labeled) histone H3 peptide as a substrate. […] Test compounds were dissolved in DMSO at 12.5 mM and then serially diluted as the DMSO concentration in the assays to be 1%. […] The reaction was stopped by the addition of three fold assay volume of progressive binding solution. Following 0.5 hour incubation at room temperature, fluorescence polarization was measured by Wallac EnVision 2103 multilabel reader (PerkinElmer).

[1] = 50 micro-M ATP, FITC-labeled histone H3 peptide substrate, IMAP fluorescence polarization, read-out: IC50 (μM) (kinase assay)

Sequence of MELK (Q14680 whole entry, looked up): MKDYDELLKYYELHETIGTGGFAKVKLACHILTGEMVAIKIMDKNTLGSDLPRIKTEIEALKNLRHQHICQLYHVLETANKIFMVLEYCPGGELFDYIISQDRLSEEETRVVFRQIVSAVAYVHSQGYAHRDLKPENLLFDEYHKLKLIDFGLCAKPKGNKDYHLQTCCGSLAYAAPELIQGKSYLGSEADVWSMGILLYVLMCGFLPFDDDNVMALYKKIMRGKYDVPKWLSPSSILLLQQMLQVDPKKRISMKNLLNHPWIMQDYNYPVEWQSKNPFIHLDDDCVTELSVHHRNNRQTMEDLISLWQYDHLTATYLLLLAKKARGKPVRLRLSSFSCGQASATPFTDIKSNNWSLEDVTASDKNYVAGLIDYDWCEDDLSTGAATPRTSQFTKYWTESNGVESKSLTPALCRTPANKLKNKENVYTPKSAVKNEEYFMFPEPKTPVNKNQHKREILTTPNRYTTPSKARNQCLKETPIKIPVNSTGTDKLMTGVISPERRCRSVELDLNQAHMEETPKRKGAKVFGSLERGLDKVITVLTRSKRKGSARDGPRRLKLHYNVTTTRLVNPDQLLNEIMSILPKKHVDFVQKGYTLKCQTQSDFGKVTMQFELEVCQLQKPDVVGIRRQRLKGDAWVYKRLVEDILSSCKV

Compound	IC50 (A549 cells) [µM]	IC50 (T47D cells) [µM]	IC50 (HT-1197 cells) [µM]	IC50 (MELK; [1]) [µM]	IC50 (MELK) [µM]
COc1cc(-c2ccc3ncc(C(=O)C4CC4)c(Nc4ccc(CN5CCN(C)CC5)cc4)c3c2)ccc1O [Example 405, cyclopropyl(6-(4-hydroxy-3-methoxyphenyl)-4-(4-((4-methylpiperazin-1-yl)methyl)phenylamino)quinolin-3-yl)methanone]	0.8	0.76	3.5	0.017	–
COc1cc(-c2ccc3ncc(S(C)(=O)=O)c(Nc4ccc(CN(C)C)cc4)c3c2)cc(Cl)c1O [Example 410, 2-chloro-4-(4-(4-((dimethylamino)methyl)phenylamino)-3-(methylsulfonyl)quinolin-6-yl)-6-methoxyphenol]	1.2	0.58	6.2	0.0068	–
COc1cc(-c2ccc3ncc(C(C)=O)c(Nc4ccc(CN(C)C)cc4)c3c2)cc(Cl)c1O [Example 391, 1-(6-(3-chloro-4-hydroxy-5-methoxyphenyl)-4-(4-((dimethylamino)methyl)phenylamino)quinolin-3-yl)ethanone]	1	0.12	4.2	0.0037	–
O=C(c1cnc2ccc(-c3cc(Cl)c(O)c(Cl)c3)cc2c1-c1ccc(CN2CCCC2)cc1)C1CC1 [Example 452]	1.6	0.55	10	0.0026	–
CN(C)CC(=O)N1CC2CC1CN2c1c(C(=O)C2CC2)cnc2ccc(-c3cc(F)c(O)c(Cl)c3)cc12 (stereo not drawn) [Example 455]	37	12	60	0.069	–
CN1CCN(C(=O)CNc2c(C(=O)C3CC3)cnc3ccc(-c4cc(F)c(O)c(Cl)c4)cc23)CC1 [Example 390, 2-(6-(3-chloro-5-fluoro-4-hydroxyphenyl)-3-(cyclopropanecarbonyl)quinolin-4-ylamino)-1-(4-methylpiperazin-1-yl)ethanone]	2.7	2	10	0.025	–
CN1CCN(Cc2ccc(Nc3c(C(=O)C4CC4)cnc4ccc(-c5ccc(O)c(Cl)c5)cc34)cc2)CC1 [Example 406, (6-(3-chloro-4-hydroxyphenyl)-4-(4-((4-methylpiperazin-1-yl)methyl)phenylamino)quinolin-3-yl)(cyclopropyl)methanone]	0.49	1.3	3.4	0.019	–
COc1cc(-c2ccc3ncc(C(=O)C4CC4)c(Nc4ccc(CN(C)C)cn4)c3c2)cc(Cl)c1O [Example 429, (6-(3-chloro-4-hydroxy-5-methoxyphenyl)-4-(5-((dimethylamino)methyl)pyridin-2-ylamino)quinolin-3-yl)(cyclopropyl)methanone]	5.1	3.8	19	0.019	–
CN(C)Cc1ccc(Nc2c(S(C)(=O)=O)cnc3ccc(-c4ccc(O)c(Cl)c4)cc23)cc1 [Example 411, 2-chloro-4-(4-(4-((dimethylamino)methyl)phenylamino)-3-(methylsulfonyl)quinolin-6-yl)phenol]	0.37	0.29	0.63	0.0091	–
COc1cc(-c2ccc3ncc(S(C)(=O)=O)c(N[C@H]4CC[C@H](CN(C)C)CC4)c3c2)cc(Cl)c1O [Example 422]	0.65	0.7	4.4	0.0041	–
CN(C)CC(=O)N1CCN(c2c(C(=O)C3CC3)cnc3ccc(-c4ccc(O)c(Cl)c4)cc23)CC1 [Example 441, 1-(4-(6-(3-chloro-4-hydroxyphenyl)-3-(cyclopropanecarbonyl)quinolin-4-yl)piperazin-1-yl)-2-(dimethylamino)ethanone]	0.54	0.63	46	0.004	–
CCN(CC)C1CCC(Nc2c(C(=O)C3CCCC3)cnc3ccc(-c4ccc(O)c(Cl)c4)cc23)CC1 (stereo not drawn) [Example 385, (6-(3-chloro-4-hydroxyphenyl)-4-(4-(diethylamino)cyclohexylamino)quinolin-3-yl)(cyclopentyl)methanone]	0.94	1.7	1.9	0.019	–
CN(C)C[C@H]1CC[C@H](Nc2c(C(=O)C3CC3)cnc3ccc(-c4cnc(C#N)nc4)cc23)CC1 [Example 426]	1.5	0.43	3.7	0.0025	–
CN(C)CC1CCN(c2c(C(=O)C3CC3)cnc3ccc(-c4ccc(O)c(C(F)(F)F)c4)cc23)CC1 [Example 454]	1.3	4	5.3	0.014	–
CN(C)CC1CCN(c2c(C(=O)C3CC3)cnc3ccc(-c4ccc5[nH]ccc5c4)cc23)CC1 [Example 453]	0.48	1.2	2.3	0.094	–
COc1cc(-c2ccc3ncc(C(=O)C4CC4)c(-c4ccc(CN5CCCC5)cc4)c3c2)cc(Cl)c1O [Example 436, (6-(3-chloro-4-hydroxy-5-methoxyphenyl)-4-(4-(pyrrolidin-1-ylmethyl)phenyl)quinolin-3-yl)(cyclopropyl)methanone]	0.63	0.63	4.9	0.014	–
CN(C)[C@H]1CC[C@H](Nc2c(C#N)cnc3ccc(-c4cc(F)c(O)c(Cl)c4)cc23)CC1 [Example 446]	8.4	0.61	10	0.0027	–
CN(C)Cc1ccc(Nc2c(C(=O)C3CC3)cnc3ccc(-c4cnc(C#N)nc4)cc23)nc1 [Example 439, 5-(3-(cyclopropanecarbonyl)-4-(5-((dimethylamino)methyl)pyridin-2-ylamino)quinolin-6-yl)pyrimidine-2-carbonitrile]	4	0.61	3.6	0.058	–
CN(C)CC1CCN(c2c(C(=O)C3CCCC3)cnc3ccc(-c4cc(F)c(O)c(Cl)c4)cc23)CC1 [Example 384, (6-(3-chloro-5-fluoro-4-hydroxyphenyl)-4-(4-((dimethylamino)methyl)piperidin-1-yl)quinolin-3-yl)(cyclopentyl)methanone]	1.9	2	4	0.0046	–
COc1cc(-c2ccc3ncc(C(=O)C4CC4)c(N4C[C@@H]5C[C@H]4CN5C(=O)CN(C)C)c3c2)cc(Cl)c1O [Example 456]	4.2	3.8	29	–	0.0078
CN(C)Cc1ccc(Nc2c(C(=O)C3CCCC3)cnc3ccc(-c4ccc(O)c(Cl)c4)cc23)cc1 [Example 387, (6-(3-chloro-4-hydroxyphenyl)-4-(4-((dimethylamino)methyl)phenylamino)quinolin-3-yl)(cyclopentyl)methanone]	1	1.6	1.9	0.089	–
CS(=O)(=O)c1cnc2ccc(-c3ccc(O)c(Cl)c3)cc2c1N1CCC(CN2CCCC2)CC1 [Example 408, 2-chloro-4-(3-(methylsulfonyl)-4-(4-(pyrrolidin-1-ylmethyl)piperidin-1-yl)quinolin-6-yl)phenol]	3.2	8.2	9.5	0.009	–
CN1CCCC1c1ccc(Nc2c(C(=O)C3CC3)cnc3ccc(-c4cc(F)c(O)c(Cl)c4)cc23)nc1 (stereo not drawn) [Example 443]	6.6	7.1	10	0.043	–
COc1cc(-c2ccc3ncc(S(C)(=O)=O)c(N4CCC(CN5CCCC5)CC4)c3c2)cc(Cl)c1O [Example 412, 2-chloro-6-methoxy-4-(3-(methylsulfonyl)-4-(4-(pyrrolidin-1-ylmethyl)piperidin-1-yl)quinolin-6-yl)phenol]	0.58	1.4	2.5	0.002	–
CN(C)Cc1ccc(Nc2c(C(=O)C3CC3)cnc3ccc(-c4cc(F)c(O)c(Cl)c4)cc23)nc1 [Example 435, (6-(3-chloro-5-fluoro-4-hydroxyphenyl)-4-(5-((dimethylamino)methyl)pyridin-2-ylamino)quinolin-3-yl)(cyclopropyl)methanone]	2.8	2.7	12	0.049	–
CN(C)Cc1ccc(Nc2c(C(=O)C3CC3)cnc3ccc(-c4cc(Cl)c(O)c(Cl)c4)cc23)nc1 [Example 417, cyclopropyl(6-(3,5-dichloro-4-hydroxyphenyl)-4-(5-((dimethylamino)methyl)pyridin-2-ylamino)quinolin-3-yl)methanone]	1.8	1.7	22	0.0099	–
O=C(c1cnc2ccc(-c3cc(Cl)c(O)c(Cl)c3)cc2c1-c1ccc(NCCN2CCOCC2)nc1)C1CC1 [Example 450]	4.6	1.8	12	0.018	–
